In publication PMC10714399, “Open Source Antibiotics: Simple Diarylimidazoles Are Potent against Methicillin-Resistant Staphylococcus aureus” (ACS Infectious Diseases, 2023):
Values after ≈ are worked out from the molar mass of the structure shown. Like-named read-outs stand apart in the source and are kept apart here.

What was measured:
[1] = system: Staphylococcus aureus NCTC 13373 (mecA-positive; methicillin-resistant); assay: In vitro antibacterial activity, MIC (UCL School of Pharmacy assay), MRSA; format: cell-based; conditions: for MIC: Staphylococcus aureus
Description: (§1) Staphylococcus aureus NCTC 13373 (mecA-positive; methicillin-resistant, NCTC 13373) was supplied by the National Collection of Type Cultures (NCTC), Public Health England, United Kingdom. Other organisms, S. aureus ATCC 25923 (methicillin-susceptible) and Enterococcus faecalis ATCC 51299 (vanA-positive; vancomycin-resistant), were obtained from the American Type Culture Collection (ATCC) via LGC Standards, UK. A suspension of each organism was prepared from an overnight plate culture (tryptone soya agar) in phosphate-buffered saline (PBS) and adjusted to an absorbance reading at 600 nm of 0.1, which is approximately equivalent to 1 × 10^8 colony-forming units (CFU) per mL. The cultures were further diluted 1:100 in isosensitest broth (Oxoid, United Kingdom) before 100 μL was used to inoculate each well of a 96-well plate that contained diluted samples of the OSA series. Compounds were evaluated over a 2-fold dilution range from 32 to 0.03 μg/mL. Stocks of the samples were prepared in 100% DMSO at […] before being diluted in isosenstitest broth. The highest concentration of DMSO present was 2%, which has been previously shown not to inhibit the growth of the microorganisms (data not shown). […] Vancomycin was used as a quality control compound.

[2] = system: S. aureus ATCC 25923 (methicillin-susceptible); assay: In vitro antibacterial activity, MIC (UCL), MSSA; format: cell-based, Staphylococcus aureus; conditions: Staphylococcus aureus
Description: as §1

[3] = UCL assay, read-out: MRSA MIC (ug/mL) (UCL)
[4] = UCL assay, read-out: MSSA MIC (ug/mL) (UCL)

| SMILES | MIC ([1]; UCL, read-out: MRSA MIC (UCL)) [µg/mL] | MIC [1, 3] [µg/mL] | MIC [2, 4] [µg/mL] | other results |
| --- | --- | --- | --- | --- |
| c1ccc(-c2nc3n(c2-c2csc4ccccc24)CCC3)nc1 [OSA_000832] | 8 (≈ 25.2 µM) |  |  |  |
| c1ccc(-c2nc3n(c2-c2ccc4sccc4c2)CCC3)cc1 [OSA_000834] | > 32 |  |  |  |
| c1ccc(-c2nc3n(c2-c2ccc4scnc4c2)CCC3)nc1 [OSA_000835] | 32 (≈ 101 µM) |  |  |  |
| Fc1ccc(Nc2c(-c3nccs3)nc3ccccn23)cc1 [OSA_001008] | > 32 |  |  | MIC ([2]; read-out: MSSA MIC (UCL)): > 32 µg/mL |
| Fc1ccc(Nc2c(-c3ccc[nH]3)nc3ccccn23)cc1 [OSA_001009] | > 32 |  |  | MIC ([2]; read-out: MSSA MIC (UCL)): > 32 µg/mL |
| CC(C)CN(c1ccc(F)cc1)c1c(-c2nccs2)nc2ccccn12 [OSA_001010] | > 32 |  |  | MIC ([2]; read-out: MSSA MIC (UCL)): > 32 µg/mL |
| COc1ccc(-c2nc3ccccn3c2N(CC(C)C)c2ccc(F)cc2)nc1 [OSA_001034] |  | 8 (≈ 20.5 µM) |  |  |
| CC(C)CN(c1ccc(F)cc1)c1c(-c2ccccn2)nc2cnccn12 [OSA_001035] |  | > 32 | > 32 |  |
| CC(C)CN(c1ccc(F)cc1)c1c(-c2ccccn2)nc2ccc(S(C)(=O)=O)cn12 [OSA_001037] |  | > 32 | > 32 |  |
| CC(C)CN(c1ccc(F)cc1)c1c(-c2ccccn2)nc2ncccn12 [OSA_001038] |  |  | 8 (≈ 22.1 µM) |  |
| CC(C)CN(c1ccc(F)cc1)c1c(-c2ccccn2)nc2ccncn12 [OSA_001039] |  | > 32 | > 32 |  |
| c1ccc(-c2nc3n(c2-c2ccc4c(c2)OCO4)CCS3)nc1 [compound 813] |  |  |  | MRSA MIC [1]: 32 µg/mL |
| c1ccc(-c2nc3ccccn3c2-c2ccc3c(c2)OCO3)nc1 [compound 814] |  |  |  | MIC ([1]; read-out: MRSA MIC): 32 µg/mL (≈ 101 µM) |
| c1ccc(-c2nc3ncccn3c2-c2ccc3c(c2)OCO3)nc1 [compound 815] |  |  |  | MRSA MIC [1]: > 32 µg/mL |
| c1cncc(-c2nc3n(c2-c2ccc4c(c2)OCO4)CCC3)c1 [compound 816] |  |  |  | MRSA MIC [1]: > 32 µg/mL |
| c1cc(-c2nc3n(c2-c2ccc4c(c2)OCO4)CCC3)ccn1 [compound 817] |  |  |  | MRSA MIC [1]: > 32 µg/mL |
| c1ccc(-c2nc3n(c2-c2ccc4c(c2)OCO4)CCCC3)nc1 [compound 818] |  |  |  | MRSA MIC [1]: 16 µg/mL |
| c1ccc(-c2nc3n(c2-c2ccc4c(c2)OCCO4)CCC3)nc1 [compound 819] |  |  |  | MIC ([1]; read-out: MRSA MIC): 16 µg/mL (≈ 50.1 µM) |
| COc1ccc(-c2c(-c3ccccn3)nc3n2CCC3)cc1OC [compound 820] |  |  |  | MRSA MIC [1]: 32 µg/mL; MIC ([1]; 16 h, read-out: MRSA MIC): > 32 µg/mL; MIC ([1]; read-out: MRSA MIC): > 32 µg/mL; MIC ([2]; read-out: MSSA MIC): > 32 µg/mL |

The next lines start with results.

| MIC ([1]; UCL, read-out: MRSA MIC (UCL)) [µg/mL] | MIC [1, 3] [µg/mL] | MIC [2, 4] [µg/mL] | SMILES | other results |
| --- | --- | --- | --- | --- |
| > 32 |  |  | c1ccc(-c2nc3n(c2-c2ccc4cccnc4c2)CCC3)nc1 [OSA_000833] |  |
| > 32 |  |  | CN1CCN(c2ccc(-c3c(-c4ccccn4)nc4ccccn34)cc2)CC1 [OSA_001012] | MIC ([2]; read-out: MSSA MIC (UCL)): > 32 µg/mL |
| > 32 |  |  | Cc1ccc(-c2c(-c3ccccn3)nc3cc(C#N)ccn23)cc1 [OSA_001013] | MIC ([2]; read-out: MSSA MIC (UCL)): > 32 µg/mL |
| > 32 |  |  | Cc1ccc(-c2c(-c3ccccn3)nc3cc(N4CCNCC4)ccn23)cc1 [OSA_001014] | MIC ([2]; read-out: MSSA MIC (UCL)): > 32 µg/mL |
| > 32 |  |  | Cc1ccc(-c2c(-c3ccccn3)nc3cc(C(N)=O)ccn23)cc1 [OSA_001015] | MIC ([2]; read-out: MSSA MIC (UCL)): > 32 µg/mL |
| > 32 |  |  | N#Cc1ccc(C(=O)Nc2c(-c3ccccn3)nc3ccccn23)cc1 [OSA_001016] | MIC ([2]; read-out: MSSA MIC (UCL)): > 32 µg/mL |
| > 32 |  |  | Cc1ccc(C(=O)Nc2c(-c3ccccn3)nc3ccccn23)cc1 [OSA_001017] | MIC ([2]; read-out: MSSA MIC (UCL)): > 32 µg/mL |
|  | 32 (≈ 88.5 µM) | 32 (≈ 88.5 µM) | CC(C)CN(c1ccc(F)cc1)c1c(-c2ccccn2)nc2cccnn12 [OSA_001036] |  |
|  | 32 (≈ 85.5 µM) | > 32 | CC(C)CN(Cc1c(-c2ccccn2)nc2ccccn12)c1ccc(F)cc1 [OSA_001040] |  |
|  | > 32 | > 32 | N#Cc1ccc(-c2nc(-c3ccccn3)c[nH]2)cc1 [OSA_001102] |  |
|  | > 32 | > 32 | N#Cc1ccc(-c2c(-c3ccccn3)nc3cccnn23)cc1 [OSA_001103] |  |
|  | > 32 | > 32 | N#Cc1ccc(-c2c(-c3ccccn3)nc3ccccn23)cc1 [OSA_001104] |  |
|  | > 32 | > 32 | N#Cc1ccc(-c2c(-c3ccccn3)nc3ncccn23)cc1 [OSA_001105] |  |
|  | > 32 | > 32 | N#Cc1ccc(-c2c(-c3ccccn3)nc3cnccn23)cc1 [OSA_001106] |  |
|  | > 32 | > 32 | N#Cc1ccc(-c2c(-c3ncccn3)nc3ccccn23)cc1 [OSA_001107] |  |
